Experimental data taken from US6737383B1, “Herbicidal oxadiazolidines” (priority 1999, dated 2004).

Key:
Italian ryegrass = experiment: Test E Italian ryegrass; type: in vivo, Lolium multiflorum; conditions: Preemergence; for I. Ryegrass plant response rating (0 to 100 scale): Rate 250 g/ha
crabgrass = experiment: Test B pre/postemergence crabgrass; type: in vivo, Digitaria sanguinalis
In short: (§1)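 Response is a visual 0-to-10 score relative to untreated plants, where 0 means no effect and 10 means complete control, taken twelve to sixteen days after application. Treatments went onto soil at planting and onto foliage of 1- to 4-leaf plants, using a surfactant-containing non-phytotoxic solvent.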

wild oat = experiment: Test E wild oat; type: in vivo, Avena fatua; conditions: Preemergence; for Wild oat plant response rating (0 to 100 scale): Rate 250 g/ha
bamyardgrass = experiment: Test B flood test barnyardgrass; type: in vivo, Echinochloa crus-galli
In short: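 Read-out is a visual response score from 0 (no effect) to 10 (complete control), assigned by comparison with untreated controls. Treatment was applied at the 2-leaf stage, and plants stayed in the greenhouse for twelve to sixteen days before scoring.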

winter barley = experiment: Test E winter barley; type: in vivo, Hordeum vulgare; conditions: Preemergence; for Barley (winter) plant response rating (0 to 100 scale): Rate 250 g/ha
morningglory = experiment: Test B pre/postemergence morningglory; type: in vivo, Ipomoea hederacea
In short: as §1

blackgrass [1] = experiment: Test E blackgrass; type: in vivo, Alopecurus myosuroides; conditions: Preemergence; for Blackgrass plant response rating (0 to 100 scale): Rate 250 g/ha
green foxtail = experiment: Test E green foxtail; type: in vivo, Setaria viridis; conditions: Preemergence; for Green foxtail plant response rating (0 to 100 scale): Rate 250 g/ha
winter wheat [2] = experiment: Test E winter wheat; type: in vivo, Triticum aestivum; conditions: Postemergence; for Wheat (winter) plant response rating: Rate 250 g/ha
In short: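 Visual evaluation versus untreated controls after about 21 to 28 days in the greenhouse. Compound was in a surfactant-containing non-phytotoxic solvent; postemergence plants were treated at the 1- to 4-leaf stage, grown in a 60:40 sandy loam and potting mix blend.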

blackgrass [3] = experiment: Test B pre/postemergence blackgrass; type: in vivo, Alopecurus myosuroides
In short: as §1

winter wheat [4] = experiment: Test E winter wheat; type: in vivo, Triticum aestivum; conditions: Preemergence; for Wheat (winter) plant response rating (0 to 100 scale): Rate 250 g/ha
[5] = Rate 500 g/ha, 0 to 100 scale (0 no effect, 100 complete control)
[6] = Rate 1000 g/ha, 0 to 100 scale, 0 no effect, 100 complete control
[7] = Preemergence, Rate 62 g/ha, scale of 0 to 10 where 0 is no effect and 10 is complete control
[8] = Preemergence, Rate 250 g/ha, scale of 0 to 10 where 0 is no effect and 10 is complete control
[9] = Preemergence, Rate 500 g/ha, scale of 0 to 10 where 0 is no effect and 10 is complete control
[10] = Rate 62 g/ha, Postemergence, scale 0 to 10 (0 no effect, 10 complete control)
[11] = Rate 125 g/ha, Postemergence, scale of 0 to 10 where 0 is no effect and 10 is complete control
[12] = Rate 125 g/ha, Preemergence, scale of 0 to 10 where 0 is no effect and 10 is complete control
[13] = Rate 250 g/ha, Postemergence, scale of 0 to 10 where 0 is no effect and 10 is complete control
[14] = Rate 62 g/ha, headed Pre-emergence (flood test species), scale 0 to 10 (0 no effect, 10 complete control)
[15] = Rate 125 g/ha, Pre-emergence, flood test species, scale 0 to 10 where 0 is no effect and 10 is complete control
[16] = Rate 250 g/ha, Pre-emergence, flood-test species, scale 0 to 10, 0 is no effect, 10 is complete control
[17] = Rate 1000 g/ha, 0 to 100 scale where 0 is no effect and 100 is complete control
[18] = 0 to 100 scale where 0 is no effect and 100 is complete control
[19] = Rate 500 g/ha, 0 to 100 scale, 0 is no effect, 100 is complete control
[20] = Rate 31 g/ha, 0 to 100 scale, 0 no effect, 100 complete control
[21] = Rate 62 g/ha, 0 to 100 scale, 0 no effect, 100 complete control
[22] = Rate 125 g/ha, 0 to 100 scale (0 no effect, 100 complete control)
[23] = Preemergence, Rate 31 g/ha, visual rating, scale 0 to 10 (0 no effect, 10 complete control)
[24] = Rate 16 g/ha, Postemergence, scale 0 to 10, 0 no effect, 10 complete control
[25] = Rate 16 g/ha, Preemergence, scale 0 to 10, 0 no effect, 10 complete control
[26] = Rate 31 g/ha, Postemergence, scale 0 to 10
[27] = Rate 31 g/ha, Pre-emergence section (flood test species), scale 0 to 10

Structure (SMILES): CC(C)N(C(=O)n1oc(=O)n(C2CCCC2)c1=O)c1ccc(F)cc1F [Compound 284]
- I. Ryegrass plant response rating (0 to 100 scale) (Italian ryegrass): 85
- Plant response rating, I. Ryegrass (Italian ryegrass; [5]): 70
- Plant response rating, I. Ryegrass (Italian ryegrass; [6]): 85
- Crabgrass plant response rating (crabgrass; [7]): 4
- Crabgrass plant response rating (crabgrass; [8]): 8
- Plant response rating, Crabgrass (crabgrass; [9]): 9
- Crabgrass plant response rating (crabgrass; [10]): 0
- Crabgrass plant response rating (crabgrass; [11]): 1
- Crabgrass plant response rating (crabgrass; [12]): 4
- Plant response rating, Crabgrass (crabgrass; [13]): 1
- Wild oat plant response rating (0 to 100 scale) (wild oat): 70
- Plant response rating, Wild oat (wild oat; [5]): 60
- Plant response rating, Wild oat (wild oat; [6]): 70
- Barnyardgrass plant response rating (bamyardgrass; [14]): 0
- Barnyardgrass plant response rating (bamyardgrass; [15]): 1
- Barnyardgrass plant response rating (bamyardgrass; [16]): 4
- Barnyardgrass plant response rating (bamyardgrass; Rate 500 g/ha, Pre-emergence, flood test species, scale 0 to 10 (0 no effect, 10 complete control)): 9
- Barley (winter) plant response rating (0 to 100 scale) (winter barley): 50
- Plant response rating, Barley (winter) (winter barley; [5]): 30
- Plant response rating, Barley (winter) (winter barley; [6]): 60
- Morningglory plant response rating (morningglory; [7]): 0
- Morningglory plant response rating (morningglory; [8]): 1
- Plant response rating, Morningglory (morningglory; [9]): 2
- Morningglory plant response rating (morningglory; [10]): 7
- Morningglory plant response rating (morningglory; [11]): 7
- Morningglory plant response rating (morningglory; [12]): 1
- Plant response rating, Morningglory (morningglory; [13]): 7
- Blackgrass plant response rating (0 to 100 scale) (blackgrass [1]): 65
- Plant response rating, Blackgrass (blackgrass [1]; [6]): 70
- Green foxtail plant response rating (0 to 100 scale) (green foxtail): 100
- Plant response rating, Green foxtail (green foxtail; [5]): 100
- Plant response rating, Green foxtail (green foxtail; [6]): 100
- Plant response rating, Wheat (winter) (winter wheat [2]; [17]): 85
- Wheat (winter) plant response rating (winter wheat [2]; [18]): 60
- Plant response rating, Wheat (winter) (winter wheat [2]; [19]): 20
- Blackgrass plant response rating (blackgrass [3]; [7]): 0
- Blackgrass plant response rating (blackgrass [3]; [8]): 8
- Plant response rating, Blackgrass (blackgrass [3]; [9]): 10
- Blackgrass plant response rating (blackgrass [3]; [10]): 3
- Blackgrass plant response rating (blackgrass [3]; [11]): 5
- Blackgrass plant response rating (blackgrass [3]; [12]): 4
- Plant response rating, Blackgrass (blackgrass [3]; [13]): 7
- Blackgrass plant response rating (blackgrass [3]; Rate 500 g/ha, Postemergence, scale 0 to 10, 0 no effect, 10 complete control): 8
- Wheat (winter) plant response rating (0 to 100 scale) (winter wheat [4]): 70
- Plant response rating, Wheat (winter) (winter wheat [4]; [5]): 70
- Plant response rating, Wheat (winter) (winter wheat [4]; [6]): 80

Structure (SMILES): CC(C)N(C(=O)n1oc(=O)n(CCCF)c1=O)c1ccc(F)cc1 [Compound 287]
- Plant response rating, I. Ryegrass (Italian ryegrass; [20]): 20
- Plant response rating, I. Ryegrass (Italian ryegrass; [21]): 50
- Plant response rating, I. Ryegrass (Italian ryegrass; [22]): 55
- I. Ryegrass plant response rating (0 to 100 scale) (Italian ryegrass): 60
- Crabgrass plant response rating (crabgrass; [23]): 2
- Crabgrass plant response rating (crabgrass; [7]): 8
- Crabgrass plant response rating (crabgrass; [24]): 0
- Crabgrass plant response rating (crabgrass; [25]): 0
- Crabgrass plant response rating (crabgrass; [26]): 2
- Crabgrass plant response rating (crabgrass; [10]): 2
- Crabgrass plant response rating (crabgrass; [11]): 5
- Crabgrass plant response rating (crabgrass; [12]): 9
- Plant response rating, Wild oat (wild oat; [20]): 0
- Plant response rating, Wild oat (wild oat; [21]): 30
- Plant response rating, Wild oat (wild oat; [22]): 70
- Wild oat plant response rating (0 to 100 scale) (wild oat): 60
- Barnyardgrass plant response rating (bamyardgrass; Rate 16 g/ha, head printed Pre-emergence (flood test species), scale 0 to 10, 0 no effect, 10 complete control): 0
- Barnyardgrass plant response rating (bamyardgrass; [27]): 0
- Barnyardgrass plant response rating (bamyardgrass; [14]): 0
- Barnyardgrass plant response rating (bamyardgrass; [15]): 0
- Plant response rating, Barley (winter) (winter barley; [20]): 30
- Plant response rating, Barley (winter) (winter barley; [21]): 20
- Plant response rating, Barley (winter) (winter barley; [22]): 30
- Barley (winter) plant response rating (0 to 100 scale) (winter barley): 35
- Morningglory plant response rating (morningglory; [23]): 0
- Morningglory plant response rating (morningglory; [7]): 0
- Morningglory plant response rating (morningglory; [24]): 2
- Morningglory plant response rating (morningglory; [25]): 0
- Morningglory plant response rating (morningglory; [26]): 2
- Morningglory plant response rating (morningglory; [10]): 2
- Morningglory plant response rating (morningglory; [11]): 2
- Morningglory plant response rating (morningglory; [12]): 0
- Plant response rating, Blackgrass (blackgrass [1]; [20]): 30
- Plant response rating, Blackgrass (blackgrass [1]; [21]): 30
- Plant response rating, Blackgrass (blackgrass [1]; [22]): 50
- Blackgrass plant response rating (0 to 100 scale) (blackgrass [1]): 60
- Plant response rating, Green foxtail (green foxtail; [20]): 30
- Plant response rating, Green foxtail (green foxtail; [21]): 60
- Plant response rating, Green foxtail (green foxtail; [22]): 60
- Green foxtail plant response rating (0 to 100 scale) (green foxtail): 90
- Plant response rating, Wheat (winter) (winter wheat [2]; [20]): 30
- Plant response rating, Wheat (winter) (winter wheat [2]; Rate 62 g/ha, 0 to 100 scale): 30
- Plant response rating, Wheat (winter) (winter wheat [2]; Rate 125 g/ha, 0 to 100 scale, 0 is no effect, 100 is complete control): 40
- Wheat (winter) plant response rating (winter wheat [2]; [18]): 50
- Blackgrass plant response rating (blackgrass [3]; [23]): 7
- Blackgrass plant response rating (blackgrass [3]; [7]): 10
- Blackgrass plant response rating (blackgrass [3]; [24]): 0
- Blackgrass plant response rating (blackgrass [3]; [25]): 0
- Blackgrass plant response rating (blackgrass [3]; [26]): 8
- Blackgrass plant response rating (blackgrass [3]; [10]): 8
- Blackgrass plant response rating (blackgrass [3]; [11]): 9
- Blackgrass plant response rating (blackgrass [3]; [12]): 10
- Plant response rating, Wheat (winter) (winter wheat [4]; [20]): 40
- Plant response rating, Wheat (winter) (winter wheat [4]; [21]): 30
- Plant response rating, Wheat (winter) (winter wheat [4]; [22]): 45
- Wheat (winter) plant response rating (0 to 100 scale) (winter wheat [4]): 50

Structure (SMILES): CC(C)=CCn1c(=O)on(C(=O)N(c2ccc(F)cc2)C(C)C)c1=O [Compound 288]
- I. Ryegrass plant response rating (0 to 100 scale) (Italian ryegrass): 30
- Plant response rating, I. Ryegrass (Italian ryegrass; [5]): 50
- Plant response rating, I. Ryegrass (Italian ryegrass; [6]): 60
- Crabgrass plant response rating (crabgrass; [23]): 0
- Crabgrass plant response rating (crabgrass; [7]): 1
- Crabgrass plant response rating (crabgrass; [8]): 10
- Crabgrass plant response rating (crabgrass; [26]): 0
- Crabgrass plant response rating (crabgrass; [10]): 0
- Crabgrass plant response rating (crabgrass; [11]): 0
- Crabgrass plant response rating (crabgrass; [12]): 2
- Plant response rating, Crabgrass (crabgrass; [13]): 3
- Wild oat plant response rating (0 to 100 scale) (wild oat): 20
- Plant response rating, Wild oat (wild oat; [5]): 30
- Plant response rating, Wild oat (wild oat; [6]): 50
- Barnyardgrass plant response rating (bamyardgrass; [27]): 0
- Barnyardgrass plant response rating (bamyardgrass; [14]): 0
- Barnyardgrass plant response rating (bamyardgrass; [15]): 4
- Barnyardgrass plant response rating (bamyardgrass; [16]): 9
- Barley (winter) plant response rating (0 to 100 scale) (winter barley): 0
- Plant response rating, Barley (winter) (winter barley; [5]): 5
- Plant response rating, Barley (winter) (winter barley; [6]): 10
- Morningglory plant response rating (morningglory; [23]): 0
- Morningglory plant response rating (morningglory; [7]): 0
- Morningglory plant response rating (morningglory; [8]): 0
- Morningglory plant response rating (morningglory; [26]): 3
- Morningglory plant response rating (morningglory; [10]): 7
- Morningglory plant response rating (morningglory; [11]): 8
- Morningglory plant response rating (morningglory; [12]): 0
- Plant response rating, Morningglory (morningglory; [13]): 8
- Blackgrass plant response rating (0 to 100 scale) (blackgrass [1]): 50
- Plant response rating, Blackgrass (blackgrass [1]; [5]): 50
- Green foxtail plant response rating (0 to 100 scale) (green foxtail): 50
- Plant response rating, Green foxtail (green foxtail; [5]): 60
- Plant response rating, Green foxtail (green foxtail; [6]): 100
- Plant response rating, Wheat (winter) (winter wheat [2]; [17]): 40
- Wheat (winter) plant response rating (winter wheat [2]; [18]): 35
- Plant response rating, Wheat (winter) (winter wheat [2]; [19]): 30
- Blackgrass plant response rating (blackgrass [3]; [23]): 0
- Blackgrass plant response rating (blackgrass [3]; [7]): 0
- Blackgrass plant response rating (blackgrass [3]; [8]): 6
- Blackgrass plant response rating (blackgrass [3]; [26]): 0
- Blackgrass plant response rating (blackgrass [3]; [10]): 0
- Blackgrass plant response rating (blackgrass [3]; [11]): 0
- Blackgrass plant response rating (blackgrass [3]; [12]): 2
- Plant response rating, Blackgrass (blackgrass [3]; [13]): 2
- Wheat (winter) plant response rating (0 to 100 scale) (winter wheat [4]): 40
- Plant response rating, Wheat (winter) (winter wheat [4]; [5]): 30
- Plant response rating, Wheat (winter) (winter wheat [4]; [6]): 55
